Test systems include 786-0; ACHN; CCRF-CEM; COLO 205; HCT-15; HL-60; HT-29; KM12; NCI-H522; OVCAR-4; OVCAR-5; OVCAR-8; SF-539; SK-MEL-28; SNB-19; T47D; TK-10; U-251; UACC-257; UO-31.
Common to all, as to assay: NCI anticancer screen, dose series, 48 h

SMILES strings stand for the structures.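 Assay format: 96-well plates, 48-hour exposure. GI50: concentration for 50% inhibition of growth.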 Active and inactive are the calls of the source. No stated cut-off is given here; in the data, active = GI50 up to about 1.1 µM and inactive = higher.

For `O=[N+]([O-])c1ccc(C[S+]([O-])Cc2ccccc2)cc1` (stereo not drawn), the GI50 was > 100 µM (inactive) with 786-0; > 100 µM (inactive) in the test on ACHN; > 100 µM (inactive) in the test with CCRF-CEM; > 100 µM (inactive) with COLO 205; more than 100 µM in the test with HCT-15; > 100 µM (inactive) with HL-60. Also, the GI50 in the test with HT-29, in the test on KM12, in the test with NCI-H522, with OVCAR-4, in the test with OVCAR-5 and with OVCAR-8 was > 100 µM (inactive) throughout. For the same molecule, the GI50 in the test on SF-539, in the test with SK-MEL-28, with SNB-19, in the test on T47D, in the test with TK-10 and in the test on U-251 was > 100 µM (inactive) throughout. Also, the GI50 in the test with UACC-257 and with UO-31 was > 100 µM (inactive) each time.
As to `O=C1CS/C(=N/N=C/c2cn(Cc3ccc(Cl)cc3Cl)c3ccccc23)N1`, the GI50 is 22.4 µM (inactive) with 786-0; 53.7 µM (inactive) with ACHN; 15.8 µM (inactive) with CCRF-CEM; > 100 µM (inactive) in the test with COLO 205; 37.3 µM in the test with HCT-15; > 100 µM (inactive) in the test with HL-60. Moreover, the GI50 was 50.1 µM (inactive) with HT-29; 54.3 µM (inactive) in the test on KM12; 44.9 µM (inactive) in the test with NCI-H522; 21.8 µM (inactive) with OVCAR-4; > 100 µM (inactive) with OVCAR-5; 10.8 µM (inactive) with OVCAR-8. Besides, the GI50 is 18.2 µM (inactive) in the test with SF-539; 50.4 µM (inactive) in the test on SK-MEL-28; 35.9 µM (inactive) in the test with SNB-19; 23.1 µM (inactive) in the test on T47D; > 100 µM (inactive) in the test on TK-10; 17.3 µM (inactive) in the test with U-251. Moreover, the GI50 in the test on UACC-257 is 67.8 µM (inactive); with UO-31 it was 31.8 µM (inactive).
With `COc1ccc(-c2oc3cc(O)c(OC)c(O)c3c(=O)c2O)cc1` [BETULETOL], the GI50 in the test on 786-0 is 6.08 µM (inactive); in the test with ACHN, 2.77 µM (inactive); in the test with CCRF-CEM, 5.16 µM (inactive); with COLO 205, 23.7 µM (inactive); in the test with HCT-15, 4.84 µM; in the test with HL-60 it was 2.9 µM (inactive). For the same molecule, the GI50 in the test on HT-29 is 17.1 µM (inactive); in the test with KM12 it was 12 µM (inactive); in the test with NCI-H522, 10.2 µM (inactive); in the test with OVCAR-4, 30.2 µM (inactive); with OVCAR-5, 26.9 µM (inactive); in the test with OVCAR-8, 9.95 µM (inactive). Moreover, the GI50 with SF-539 is 8.32 µM (inactive); in the test on SK-MEL-28, 20.2 µM (inactive); in the test on SNB-19, 10.1 µM (inactive); in the test with T47D it was 9.75 µM (inactive); in the test with TK-10 it was 19.5 µM (inactive); in the test on U-251, 4.47 µM (inactive). In addition, the GI50 in the test with UACC-257 is 54 µM (inactive); in the test with UO-31 it was 6.46 µM (inactive).
As for `O=C(N(O)c1ccccc1Cl)C(O)(c1ccccc1)c1ccccc1`, the GI50 was 31.3 µM (inactive) in the test with 786-0; 52.8 µM (inactive) in the test with ACHN; 15.4 µM (inactive) in the test with CCRF-CEM; > 100 µM (inactive) in the test on COLO 205; 39.3 µM with HCT-15; 22.6 µM (inactive) with HL-60. The GI50 in the test with HT-29 is 85.7 µM (inactive); in the test on KM12, 36.1 µM (inactive); in the test with NCI-H522 it was 33 µM (inactive); in the test with OVCAR-4 it was > 100 µM (inactive); with OVCAR-5 it was 82 µM (inactive); with OVCAR-8, 76.2 µM (inactive). Further, the GI50 with SF-539 is > 100 µM (inactive); with SK-MEL-28, 93.3 µM (inactive); with SNB-19 it was > 100 µM (inactive); in the test with T47D it was 47 µM (inactive); with TK-10, 62.4 µM (inactive); in the test on U-251 it was 40.6 µM (inactive). Also, the GI50 in the test on UACC-257 is > 100 µM (inactive); in the test with UO-31 it was 20.6 µM (inactive).
As for `CC(C)(C)OC(=O)C(C#N)C(=O)c1ccc(C(=O)O)[nH]1` (stereo not drawn), the GI50 with 786-0 is 51.9 µM (inactive); in the test on ACHN it was 32.2 µM (inactive); with CCRF-CEM it was 15 µM (inactive); in the test with COLO 205 it was 40.2 µM (inactive); in the test with HCT-15, 23.2 µM; with HL-60, 21.7 µM (inactive). Moreover, the GI50 in the test with HT-29 is 39.2 µM (inactive); in the test with KM12 it was 34.8 µM (inactive); in the test with NCI-H522, 33.5 µM (inactive); in the test with OVCAR-4, 19.5 µM (inactive); with OVCAR-5, 48.4 µM (inactive); in the test with OVCAR-8, 30.1 µM (inactive). The GI50 is 51.6 µM (inactive) in the test with SF-539; 62.2 µM (inactive) in the test on SK-MEL-28; 41.5 µM (inactive) in the test on SNB-19; 34.6 µM (inactive) with T47D; 29.7 µM (inactive) in the test on TK-10; 30.6 µM (inactive) with U-251. Besides, the GI50 was 30.2 µM (inactive) with UACC-257 and 30.8 µM (inactive) with UO-31.
Turning to `CS(=O)(=O)C[S+]([O-])C[S+]([O-])C[S+]([O-])CC(NC(=O)CCC(N)C(=O)O)C(=O)O` (stereo not drawn), the GI50 was > 100 µM (inactive) in the test on 786-0; > 100 µM (inactive) in the test with ACHN; > 100 µM (inactive) in the test with CCRF-CEM; > 100 µM (inactive) in the test with COLO 205; more than 100 µM in the test with HCT-15; 32.8 µM (inactive) in the test on HL-60. Further, the GI50 in the test with HT-29, in the test on KM12, in the test on NCI-H522, with OVCAR-4, in the test with OVCAR-5 and with OVCAR-8 was > 100 µM (inactive) throughout. In addition, the GI50 with SF-539, in the test on SK-MEL-28, with SNB-19, in the test on T47D, with TK-10 and with U-251 was > 100 µM (inactive) throughout. Besides, the GI50 in the test with UACC-257 and in the test with UO-31 was > 100 µM (inactive) in each case.
As to `CC1=NN2C(=N)/C(=C/c3ccccc3)C(=O)N=C2S1`, the GI50 was > 100 µM (inactive) in the test with 786-0; > 100 µM (inactive) with ACHN; > 100 µM (inactive) in the test on CCRF-CEM; > 100 µM (inactive) in the test on COLO 205; more than 100 µM with HCT-15; > 100 µM (inactive) in the test with HL-60. Further, the GI50 with HT-29 was > 100 µM (inactive); in the test with KM12, > 100 µM (inactive); with NCI-H522 it was > 36.9 µM (inactive); with OVCAR-4 it was > 100 µM (inactive); in the test with OVCAR-5 it was > 100 µM (inactive); in the test on OVCAR-8, > 100 µM (inactive). For the same molecule, the GI50 in the test with SF-539, with SK-MEL-28, in the test on SNB-19, in the test with T47D, in the test on TK-10 and in the test with U-251 was > 100 µM (inactive) in each case. The GI50 in the test with UACC-257 and in the test with UO-31 was > 100 µM (inactive) in each case.
Consider `[N-]=[N+]=NC1C(O)C(CO)OC1n1cnc2c(N)ncnc21` (stereo not drawn), for which the GI50 with 786-0 was 30.8 µM (inactive); in the test on ACHN, 5.28 µM (inactive); in the test on CCRF-CEM it was 10.1 µM (inactive); in the test with COLO 205 it was > 100 µM (inactive); with HCT-15, more than 100 µM; with HL-60 it was 0.522 µM (active). Further, the GI50 in the test with HT-29 is 31 µM (inactive); in the test with KM12 it was 74.3 µM (inactive); with NCI-H522 it was 65.8 µM (inactive); in the test with OVCAR-4, > 100 µM (inactive); in the test on OVCAR-5 it was > 100 µM (inactive); in the test on OVCAR-8, 37.9 µM (inactive). Moreover, the GI50 is 27.9 µM (inactive) in the test with SF-539; > 100 µM (inactive) in the test on SK-MEL-28; 59.4 µM (inactive) with SNB-19; 8.83 µM (inactive) with T47D; > 100 µM (inactive) with TK-10; > 100 µM (inactive) with U-251. For the same molecule, the GI50 was > 100 µM (inactive) in the test with UACC-257 and 36.6 µM (inactive) in the test on UO-31.
For the molecule `Nc1ccn([C@@H]2C=C(CO)[C@@H](O)[C@H]2O)c(=O)n1`, the GI50 was 0.103 µM (active) in the test with 786-0; 0.0559 µM (active) in the test with ACHN; 0.0617 µM (active) with CCRF-CEM; 0.198 µM (active) in the test with COLO 205; 0.0916 µM in the test with HCT-15; 0.05 µM (active) in the test with HL-60. Besides, the GI50 is 0.11 µM (active) in the test on HT-29; 0.143 µM (active) in the test on KM12; 0.6 µM (active) with NCI-H522; 0.216 µM (active) in the test on OVCAR-4; 1.48 µM (inactive) in the test on OVCAR-5; 0.0817 µM (active) in the test with OVCAR-8. Also, the GI50 was 0.254 µM (active) in the test with SF-539; 0.298 µM (active) with SK-MEL-28; 0.244 µM (active) in the test on SNB-19; 0.483 µM (active) in the test with T47D; 1.05 µM (active) with TK-10; 0.321 µM (active) in the test on U-251. In addition, the GI50 in the test on UO-31 was 0.105 µM (active).
Regarding `O=C(CCCN1CCC2(CC1)CC(=O)N(N1CCCCCC1)C2=O)c1ccccc1`, the GI50 in the test on 786-0 was > 100 µM (inactive); in the test on ACHN, > 100 µM (inactive); in the test with CCRF-CEM it was > 100 µM (inactive); in the test on COLO 205, > 100 µM (inactive); with HCT-15, more than 100 µM; in the test with HL-60, > 100 µM (inactive). Also, the GI50 in the test on HT-29 is 67.1 µM (inactive); in the test on NCI-H522, > 100 µM (inactive); in the test with OVCAR-4, > 100 µM (inactive); with OVCAR-5 it was > 100 µM (inactive); in the test with OVCAR-8, > 100 µM (inactive); in the test with SF-539, > 100 µM (inactive). Further, the GI50 in the test on SK-MEL-28, with SNB-19, with T47D, with TK-10, with U-251 and in the test with UACC-257 was > 100 µM (inactive) each time. Moreover, the GI50 in the test on UO-31 was > 100 µM (inactive).

For the origin of these results see ChEMBL document CHEMBL1201862, “PubChem BioAssay data set” (2004).
